In ChEMBL document CHEMBL3217667, “Extended side chain analogues of 8-aminoquinolines: Synthesis and evaluation of antiprotozoal, antimicrobial, -hematin inhibition, and cytotoxic activities” (Medchemcomm, 2011):
Activity calls are given as the source filed them. The calls are words filed in the database; no cut-off is given here.

Columns and labels:
[1] = tested on: Staphylococcus aureus; assay: Antibacterial activity against methicillin-resistant Staphylococcus aureus up to 20 ug/ml; assay type: functional, organism-based
[2] = tested on: Mycobacterium intracellulare; assay: Antibacterial activity against Mycobacterium intracellulare up to 20 ug/ml; assay type: functional, organism-based
[3] = tested on: Cryptococcus neoformans; assay: Antifungal activity against Cryptococcus neoformans up to 20 ug/ml by broth microdilution assay; assay type: functional, organism-based
[4] = tested on: Plasmodium falciparum; assay: Antimalarial activity against chloroquine-sensitive Plasmodium falciparum D6 by lactate dehydrogenase assay; assay type: functional, organism-based; conditions: Plasmodium falciparum, D6; read-out: IC50
[5] = Selectivity index, ratio of IC50 for African green monkey Vero cells to IC50 for chloroquine-sensitive Plasmodium falciparum D6; assay type: toxicity, cell-based; conditions: read-out: Ratio IC50
[6] = tested on: Plasmodium falciparum; assay: Antimalarial activity against chloroquine-resistant Plasmodium falciparum W2 by lactate dehydrogenase assay; assay type: functional, organism-based; conditions: Plasmodium falciparum, W2; read-out: IC50
[7] = Selectivity index, ratio of IC50 for African green monkey Vero cells to IC50 for chloroquine-resistant Plasmodium falciparum W2; assay type: toxicity, cell-based; conditions: read-out: Ratio IC50
[8] = tested on: Vero; assay: Cytotoxicity against African green monkey Vero cells by neutral red uptake assay; assay type: cell-based; conditions: Chlorocebus sabaeus
[9] = tested on: SK-MEL; assay: Cytotoxicity against human SK-MEL cells by neutral red uptake assay; assay type: cell-based
[10] = tested on: KB; assay: Cytotoxicity against human KB cells by neutral red uptake assay; assay type: cell-based
[11] = tested on: BT-549; assay: Cytotoxicity against human BT549 cells by neutral red uptake assay; assay type: cell-based
[12] = tested on: SK-OV-3; assay: Cytotoxicity against human SKOV3 cells by neutral red uptake assay; assay type: cell-based
[13] = tested on: LLC-PK1; assay: Cytotoxicity against pig LLC-PK1 cells by neutral red uptake assay; assay type: cell-based; conditions: Sus scrofa
[14] = Inhibition of beta-hematin formation after 16 hrs; assay type: physicochemical
[15] = tested on: Leishmania donovani; assay: Antileishmanial activity against Leishmania donovani promastigotes by Alamar Blue assay; assay type: functional, organism-based
[16] = tested on: Plasmodium berghei; assay: Antimalarial activity against Plasmodium berghei infected in mouse assessed as reduction in parasitemia at 10 mg/kg/day, po for 4 days measured up to day 7; assay type: functional, organism-based
[17] = tested on: Plasmodium berghei; assay: Antimalarial activity against Plasmodium berghei infected in mouse assessed as reduction in parasitemia at 25 mg/kg/day, po for 4 days measured up to day 60 relative to control; assay type: functional; parameters: scale not given: the % may be the effect or the level left
[18] = tested on: Plasmodium berghei; assay: Antimalarial activity against Plasmodium berghei infected in mouse assessed as reduction in parasitemia at 50 mg/kg/day, po for 4 days measured up to day 60 relative to control; assay type: functional; parameters: scale not given: the % may be the effect or the level left
[19] = tested on: Plasmodium berghei; assay: Antimalarial activity against Plasmodium berghei infected in mouse assessed as reduction in parasitemia at 100 mg/kg/day, po for 4 days measured up to day 60 relative to control; assay type: functional; parameters: scale not given: the % may be the effect or the level left
[20] = tested on: Plasmodium berghei; assay: Antimalarial activity against Plasmodium berghei infected in mouse assessed as reduction in parasitemia at 100 mg/kg/day, po for 4 days measured up to day 14; assay type: functional; parameters: scale not given: the % may be the effect or the level left
[21] = tested on: Pseudomonas aeruginosa; assay: Antibacterial activity against Pseudomonas aeruginosa; assay type: functional, organism-based
[22] = tested on: Escherichia coli; assay: Antibacterial activity against Escherichia coli; assay type: functional, organism-based
[23] = tested on: Candida albicans; assay: Antifungal activity against Candida albicans by broth microdilution assay; assay type: functional, organism-based
[24] = tested on: Nakaseomyces glabratus; assay: Antifungal activity against Candida glabrata by broth microdilution assay; assay type: functional, organism-based
[25] = tested on: Pichia kudriavzevii; assay: Antifungal activity against Candida krusei by broth microdilution assay; assay type: functional, organism-based
[26] = tested on: Aspergillus fumigatus; assay: Antifungal activity against Aspergillus fumigatus by broth microdilution assay; assay type: functional, organism-based
[27] = tested on: Staphylococcus aureus; assay: Antibacterial activity against Staphylococcus aureus; assay type: functional, organism-based
[28] = tested on: Staphylococcus aureus; assay: Antibacterial activity against methicillin-resistant Staphylococcus aureus; assay type: functional, organism-based
[29] = tested on: Mycobacterium intracellulare; assay: Antibacterial activity against Mycobacterium intracellulare; assay type: functional, organism-based
[30] = tested on: Cryptococcus neoformans; assay: Antifungal activity against Cryptococcus neoformans by broth microdilution assay; assay type: functional, organism-based
[31] = tested on: Staphylococcus aureus; assay: Antibacterial activity against Staphylococcus aureus up to 20 ug/ml; assay type: functional, organism-based
[32] = tested on: Plasma; assay: Half life in human plasma; assay type: ADME, cell-free

Structure (SMILES) | Activity [2] | IC50 [4] [µg/mL] | selectivity ratio [5] | IC50 [6] [µg/mL] | selectivity ratio [7] | IC50 [8] [µg/mL] | IC50 [9] [µg/mL] | IC50 [10] [µg/mL] | IC50 [11] [µg/mL] | IC50 [12] [µg/mL] | IC50 [13] [µg/mL] | IC50 [14] [µM] | IC50 [15] [µg/mL] | IC90 [15] | Activity [20] | Activity [21] | Activity [22] | Activity [23] | Activity [24] | Activity [25] | further results
COc1cc(NC(C)CCCNC(C)CCCNC(C)CCCN)c2ncccc2c1.Cl (configuration not stated) | inactive | 2.6 | > 9.1 | 1.5 | > 15.8 | > 23.8 | > 23.8 | > 23.8 | > 23.8 | > 23.8 | > 23.8 | 75 | 4.2 | 40 µg/mL | 100% | inactive | inactive | inactive | inactive | inactive | Activity [1]: inactive; Activity [3]: inactive; Activity [16]: Active; Activity [17]: 100%; Activity [18]: 100%; Activity [19]: 100%; Activity [26]: inactive
CCCCOc1c(OC)cc(NC(C)CCCNC(C)CCCN)c2nccc(CC)c12.Cl (configuration not stated) | inactive | 0.6 | > 39.6 | 0.37 | > 64.2 | > 23.8 | > 23.8 | > 23.8 | > 23.8 | > 23.8 | > 23.8 | 10.2 | 3.5 | 7 µg/mL | inactive | inactive | inactive | inactive | inactive | inactive | Activity [3]: inactive; IC50 [27]: 13.7 µg/mL; MBC [27]: 20 µg/mL; MIC [27]: 20 µg/mL; IC50 [28]: 12.5 µg/mL; MBC [28]: 20 µg/mL; MIC [28]: 20 µg/mL; IC50 [29]: > 20 µg/mL; IC50 [30]: 7.9 µg/mL; MIC [30]: 20 µg/mL; Activity [26]: inactive
CCCCCCCCOc1c(OC)cc(NC(C)CCCNC(C)CCCN)c2nccc(CC)c12.Cl (configuration not stated) | inactive | 0.92 | > 25.8 | 0.82 | > 29 | > 23.8 | > 23.8 | > 23.8 | > 23.8 | > 23.8 | > 23.8 | 15.7 | 17 | 32 µg/mL | inactive | inactive | inactive | inactive | inactive | inactive | Activity [31]: inactive; IC50 [27]: 14.5 µg/mL; IC50 [28]: 10.4 µg/mL; MBC [28]: 20 µg/mL; MIC [28]: 20 µg/mL; IC50 [29]: > 20 µg/mL; IC50 [30]: 8.5 µg/mL; MFC [30]: 20 µg/mL; MIC [30]: 20 µg/mL; Activity [26]: inactive
COc1cc(NC(C)CCCN)c2ncccc2c1 (configuration not stated) [PRIMAQUINE] |  |  |  |  |  | > 23.8 |  |  |  |  |  | > 1000 |  | inactive |  |  |  |  |  |  | t1/2 [32]: 4 h
COc1cc(NC(C)CCCNC(C)CCCN)c2ncccc2c1.Cl (configuration not stated) | inactive | 0.57 | > 41.7 | 0.8 | > 29.7 | > 23.8 | > 23.8 | > 23.8 | > 23.8 | > 23.8 | > 23.8 | 18.5 | 32 | inactive | 100% | inactive | inactive | inactive | inactive | inactive | Activity [1]: inactive; Activity [3]: inactive; Activity [16]: Active; Activity [17]: 100%; Activity [18]: 100%; Activity [19]: 100%; IC50 [29]: 10 µg/mL; Activity [26]: inactive
COc1cc(NC(C)CCCNC(C)CCCNC(C)CCCNC(C)CCCN)c2ncccc2c1.Cl (configuration not stated) | inactive | 2.3 | > 10.3 | 1.3 | > 18.3 | > 23.8 | > 23.8 | > 23.8 | > 23.8 | > 23.8 | > 23.8 | 75 | 5 | 40 µg/mL | 100% | inactive | inactive | inactive | inactive | inactive | Activity [1]: inactive; Activity [3]: inactive; Activity [16]: Active; Activity [17]: 100%; Activity [18]: 100%; Activity [19]: 100%; Activity [26]: inactive
